Results from the supplement of paper PMC10307832.

Columns and labels:
Test in all cases: relative viability (nuclei count vs DMSO), 5 days (fraction); higher = more cells survive
Axitinib + Tozasertib = compound: CNC(=O)c1ccccc1Sc1ccc2c(/C=C/c3ccccn3)n[nH]c2c1 [Axitinib] + Cc1cc(Nc2cc(N3CCN(C)CC3)nc(Sc3ccc(NC(=O)C4CC4)cc3)n2)n[nH]1 [Tozasertib] (partner 0.1 µM)
Summary of the method: (§1)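 Relative viability divides the nuclei count in treated wells by that in vehicle wells. Lung cancer cell lines were seeded in 1536-well plates, dosed by pin tool the next day, and fixed and stained after 5 days in one step with final 0.05% Triton X-100, 1% formaldehyde and 1 ug/ml Hoechst. Dosing was a single drug or a fixed anchor-drug dose plus five library-drug doses (not always all listed) in √10 steps, and values are medians of duplicate plates imaged at 4×.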

Axitinib + Phenformin = compound: CNC(=O)c1ccccc1Sc1ccc2c(/C=C/c3ccccn3)n[nH]c2c1 [Axitinib] + N=C(N)NC(=N)NCCc1ccccc1 [Phenformin] (partner 250 µM)
Summary of the method: as §1

Axitinib + AZD7762 = compound: CNC(=O)c1ccccc1Sc1ccc2c(/C=C/c3ccccn3)n[nH]c2c1 [Axitinib] + NC(=O)Nc1cc(-c2cccc(F)c2)sc1C(=O)N[C@H]1CCCNC1 [AZD7762] (partner 0.2 µM)
Summary of the method: as §1

[1] = compound: CC1=CC=C(C=C1)C(=O)CN2C3=C(CCCC3)SC2=N [Pifithrin_alpha] + CCNC(=O)c1noc(-c2cc(C(C)C)c(O)cc2O)c1-c1ccc(CN2CCOCC2)cc1 [Luminespib] (partner 0.01 µM)
Summary of the method: as §1

Cell Line | relative viability (Axitinib + Tozasertib; first compound 0.005 µM) | relative viability (Axitinib + Tozasertib; first compound 0.01581 µM) | relative viability (Axitinib + Tozasertib; first compound 0.05 µM) | relative viability (Axitinib + Tozasertib; first compound 0.1581 µM) | relative viability (Axitinib + Tozasertib; first compound 0.5 µM) | relative viability (Axitinib + Phenformin; first compound 0.005 µM) | relative viability (Axitinib + Phenformin; first compound 0.01581 µM) | relative viability (Axitinib + Phenformin; first compound 0.05 µM) | relative viability (Axitinib + Phenformin; first compound 0.1581 µM) | relative viability (Axitinib + Phenformin; first compound 0.5 µM) | relative viability (Axitinib + AZD7762; first compound 0.005 µM) | relative viability (Axitinib + AZD7762; first compound 0.01581 µM) | relative viability (Axitinib + AZD7762; first compound 0.05 µM) | relative viability (Axitinib + AZD7762; first compound 0.1581 µM) | relative viability (Axitinib + AZD7762; first compound 0.5 µM) | relative viability ([1]; first compound 1 µM) | relative viability ([1]; first compound 3.162 µM) | relative viability ([1]; first compound 10 µM) | relative viability ([1]; first compound 31.62 µM) | relative viability ([1]; first compound 100 µM)
201T | 1 | 0.896 | 0.907 | 0.929 | 1.19 | 0.475 | 0.412 | 0.449 | 0.446 | 0.399 | 0.626 | 0.56 | 0.593 | 0.539 | 0.59 | 1.23 | 0.805 | 0.917 | 0.8 | 0.766
A549 | – | – | – | – | – | 0.204 | 0.198 | 0.217 | 0.149 | 0.216 | – | – | – | – | – | – | – | – | – | –
A-427 | 0.206 | 0.193 | 0.228 | 0.266 | 0.22 | 0.356 | 0.29 | 0.416 | 0.323 | 0.289 | 0.805 | 0.77 | 0.807 | 0.718 | 0.887 | 1.07 | 0.917 | 1 | 0.678 | 0.828
ABC-1 | 0.19 | 0.226 | 0.14 | 0.179 | 0.183 | 0.268 | 0.239 | 0.222 | 0.21 | 0.241 | – | 0.725 | 0.896 | 0.822 | 0.461 | – | 0.642 | 0.766 | 0.508 | 0.262
BEN | 0.495 | 0.574 | 0.582 | 0.513 | 0.466 | 0.268 | 0.29 | 0.246 | 0.236 | 0.262 | 0.633 | 0.622 | 0.694 | 0.68 | 0.618 | 0.191 | 0.285 | 0.401 | 0.493 | 0.398
CAL-12T | 0.417 | 0.363 | 0.34 | 0.365 | 0.394 | 0.567 | 0.53 | 0.559 | 0.63 | 0.504 | 0.623 | 0.576 | 0.615 | 0.564 | 0.561 | 0.277 | 0.327 | 0.521 | – | 0.186
COR-L23 | 0.212 | 0.205 | 0.24 | 0.244 | 0.278 | 0.458 | 0.417 | 0.428 | 0.419 | 0.485 | – | – | – | – | – | 0.703 | 0.865 | 0.562 | – | 0.484
COR-L 105 | 0.356 | 0.422 | 0.331 | 0.438 | 0.364 | 0.605 | 0.4 | 0.527 | 0.388 | 0.547 | – | – | – | – | – | 0.675 | 0.763 | 0.547 | 0.62 | 0.685
ChaGo-K-1 | 0.217 | 0.205 | 0.212 | 0.237 | 0.255 | 0.467 | 0.428 | 0.506 | 0.437 | 0.469 | 0.912 | 0.862 | 0.908 | 0.868 | 0.886 | 0.563 | 0.528 | 0.477 | 0.38 | 0.581
EKVX | 0.41 | 0.492 | 0.358 | 0.347 | 0.341 | 0.243 | 0.222 | 0.214 | 0.233 | 0.216 | 0.782 | 0.617 | 0.883 | 0.636 | 0.644 | 0.885 | – | 0.826 | 0.726 | 0.769
EMC-BAC-2 | 0.301 | 0.299 | 0.272 | 0.391 | 0.412 | 0.552 | 0.535 | 0.483 | 0.547 | 0.57 | 1.07 | 1.1 | 1.06 | 1.1 | 1.11 | 1.17 | 1.12 | 0.969 | – | 1.08
EPLC-272H | 0.247 | 0.223 | 0.204 | 0.23 | 0.242 | 0.324 | 0.326 | 0.341 | 0.279 | 0.304 | 0.245 | 0.165 | 0.269 | 0.234 | 0.197 | 0.279 | 0.264 | 0.564 | 0.226 | 0.16
H3255 | 0.721 | 0.642 | 0.589 | 0.541 | 1.2 | 0.368 | 0.236 | 0.335 | 0.358 | 0.377 | 0.841 | 0.734 | 0.891 | 0.915 | 0.879 | 0.744 | 0.843 | 0.965 | 0.642 | 0.964
HARA | 0.125 | 0.0963 | 0.0847 | 0.106 | 0.123 | 0.421 | 0.412 | 0.493 | 0.392 | 0.488 | 0.315 | 0.447 | 0.369 | 0.348 | 0.313 | – | 0.899 | 0.792 | – | 0.481
HCC-15 | 0.461 | 0.564 | 0.435 | 0.49 | 0.605 | 0.469 | 0.458 | 0.51 | 0.472 | 0.464 | 1.36 | 1.13 | 1.35 | 1.14 | 1.18 | 0.175 | 0.284 | 0.315 | 0.209 | 0.322
HCC-44 | 1.07 | 1.14 | 0.702 | 1.02 | 1.19 | 0.165 | 0.27 | 0.211 | 0.198 | 0.176 | 1.07 | 1.04 | 1.01 | 0.992 | 1.03 | 1.06 | 1.21 | 0.671 | 0.543 | 0.622
HCC-78 | 0.6 | 0.493 | 0.493 | 0.477 | 0.446 | 0.67 | 0.667 | 0.752 | 0.657 | 0.474 | 0.787 | 0.58 | 0.857 | 0.708 | 0.498 | – | – | – | – | –
HCC-366 | 0.135 | 0.116 | 0.133 | 0.136 | 0.142 | 0.689 | 0.615 | 0.631 | 0.553 | 0.653 | 0.307 | 0.206 | 0.377 | 0.337 | 0.405 | – | – | – | – | –
